# Assay results: patent US20240122954A1 (YEP BIO CO. LTD., priority 2021, published 2024)
# Assays:
# astrocytes [1] = test: Cytokine secretion of LPS-treated astrocytes (multiplexing of conditioned media); format: cell-based, rats; conditions: conditioned media after 24 hours
# Method: In order to more accurately study the above effect, the secretion of cytokines was observed simultaneously with the effect of inhibiting the activity of astrocytes. After 24 hours of treatment with LPS and drugs, conditioned media were collected and changes in pro-inflammatory cytokines (TNFα) and anti-inflammatory cytokines (IL-10) were examined.
# [2] = test system: BV2 cells, a microglia cell line; test: Inhibition of LPS-induced microglia activity (cell number, Iba1 fluorescence intensity); format: cell-based; conditions: for fluorescence intensity of Iba1 (FIG. 8) / number of cells (FIG. 8): LPS-treated microglia, 24 hours
# Method: (§1) BV2 cells were cultured in high glucose DMEM medium containing 10% FBS and penicillin-streptomycin solution (5000 units/ml penicillin, 5 mg/ml streptomycin, Corning, USA) in a cell incubator at 37° C. in 5% CO2, which was used by subculturing three times a week therein.
# (§2) Cultured BV2 cells were harvested using 0.1% trypsin to obtain a population, and cultured in 96-well plates pre-coated with Poly-D-Lysine (Sigma).
# BV2 cells, a microglia cell line, were treated with LPS to induce microglia activation and inflammation, and eleutheroside B was treated at a concentration of 1 mM to 0.1 nM. The proliferation number and morphology changes after 24 hours of eleutheroside B treatment were quantified, and the activity level of microglial cells was verified by the fluorescence intensity of Iba1 (FIG. 6).
# In order to confirm the regulation of the inflammatory response through the inhibition of microglia activity by eleutheroside B in a more precise way, high content imaging was analyzed by classifying into the number of proliferated cells and the fluorescence intensity of Iba1, and the results are shown in FIG. 8.
# microglia = test: Cytokine secretion of LPS-treated microglia (multiplexing of conditioned media); format: cell-based; conditions: conditioned media after 24 hours
# BV2 cells [3] = test: Cytotoxicity of eleutheroside B to microglia (CCK-8/WST-8 survival rate); format: cell-based; conditions: 24 hours, mean±standard deviation
# Method: as §1, §2
# In order to check the cytotoxicity of eleutheroside B, BV2 cells (3×10^5 cells/well) were cultured in a 96-well culture plate for 24 hours, and then treated with various concentrations of eleutheroside B, followed by incubation for 24 hours. After 24 hours, the medium was removed and WST-8 [2-(2-methoxy-4-nitrophenyl)-3-(4-nitrophenyl)-5-(2,4-disulfophenyl)-2H-tetrazolium (Cell Counting Kit-8 (CCK-8), dojindo)] was added at a concentration of 100 uL/mL to induce a reduction reaction while incubating for 1 hour, and then absorbance (450 nm) was measured. Cell viability (%) (viability (%)=(treated group−negative control)/(positive control−negative control)×100) was calculated using the eleutheroside B treated group and the untreated control group.
# astrocytes [4] = test: Inhibition of LPS-induced astrocyte activity (cell number, cell area, GFAP intensity; high content imaging); format: cell-based, rats; conditions: LPS-activated astrocytes
# Method: The brains of 1-2 day old rats were excised, separated from the cerebral cortex, and cultured. That is, the […] cortex was divided into single cells in high-glucose DMEM medium containing 10% FBS and penicillin-streptomycin solution (5000 units/ml penicillin, 5 mg/ml streptomycin, Corning, USA), and cultured in a 75-cm2T flask. (0.5 hemispheres/flask) in a cell incubator at 5% CO2 and 37° C.
# After 1 week of culture, microglia were removed by shaking at 250 rpm for 4 hours, and the cultured astrocytes were harvested using 0.1% trypsin to obtain an astrocyte population. Astrocytes were cultured in 6-well plates previously coated with Poly-D-Lysine (Sigma).
# Astrocytes were used after primary culture was isolated from the brain of pup within 1 to 3 days after birth, and the separated astrocytes were treated with LPS at expressing the lowest concentration of IL-6. The drug treatment was performed simultaneously with LPS, and the activity of astrocytes was evaluated through the number of proliferated cells and changes in morphology (FIG. 2).
# neural stem cells = test: Neurite activity from neural stem cells of B6;SJL-Tg(APPSWE)2576Kha transgenic mice; format: cell-based; conditions: 0.01 pg/mL and 1 pg/mL, compared to the control group
# Method: (§3) B6;SJL-Tg(APPSWE)2576Kha, a genetically modified mouse for […], was used as an in-vitro brain disease model. Neural stem cells were isolated from subventricular zone (SVZ) tissues of transgenic newborn mice and neurospheres were cultured. In addition, neurosphere cells were induced to attach to the bottom with 5% FBS+F12/DMEM medium for 48 hours, and to observe differentiation potential, eleutheroside B in 5% BS+F12/DMEM medium was added to the cells, and neurite activity was observed under a microscope. In addition, the neuronal cell differentiation potential using the Neuro-2a cell line, which is a neuroblast, was confirmed. To confirm differentiation, neural differentiation markers such as DCX, Tuj1, neuroD, and NeuN were confirmed by qPCR.
# In order to confirm the activity of neurite from neural stem cells according to eleutheroside B treatment, B6;SJL-Tg(APPSWE)2576Kha, a genetically modified mouse for degenerative brain disease, was used as an in-vitro brain disease model. Neural stem cells were isolated from the subventricular zone (SVZ) tissue of genetically modified newborn mice, and the number of cells to be used in the experiment was secured through neurosphere culture. […]
# Neuro-2a = test: Neuronal differentiation marker analysis by qPCR in neuroblast cell line; format: cell-based; conditions: compared to the control
# Method: as §3
# In order to examine this at a molecular level, RNA analysis of neuronal differentiation markers (Sox2, Nestin, NeuroD, DCX, Tuj-1, NeuN) was performed, and the results are shown in FIG. 11.
# When confirming the neuronal differentiation marker, a neuroblast cell line, Neuro-2a was used, and the differentiation was confirmed by qPCR to observe if the amoeba-type metaphase cells were differentiated into neurons by the drug.
# 5×FAD = test: Working memory ability (Y-maze) in 5×FAD Alzheimer's disease animal model; format: in vivo, mouse; conditions: 50 or 150 mg/kg intraperitoneally twice a week from 4 months, measured at 6 months
# Method: (§4) In 5×FAD, an animal model of Alzheimer's disease, amyloid protein is deposited from 2.5 months and cognitive function is impaired from 6 months. Accordingly, eleutheroside B (vehicle, 50 or 150 mg/kg) was intraperitoneally administered twice a week from 4 months, and working memory ability was measured at 6 months when cognitive function was impaired. The experimental groups were 3 animals each of WT+vehicle, TG+vehicle, TG+50 mg/kg (TG_E.B(L)), and TG+150 mg/kg (TG_E.B(H)) of the same age as TG. Working memory ability was measured with Y-maze, and pre-adaptation training for the maze was performed the day before the maze experiment.
# Working memory performance was performed by sequentially moving through three passages for 8 minutes in a Y-shaped maze to check whether the movement to the previous passage was remembered, and the degree of cognitive impairment was confirmed by calculating the ratio of sequentially crossing the three passages.
# astrocytes (GFAP) = test: Brain immunohistochemistry of astrocyte activity (GFAP) in hippocampus of 5×FAD; format: in vivo, mouse; conditions: 50 or 150 mg/kg intraperitoneally twice a week
# Method: as §4
# (§5) In order to confine the pathological changes related to cognitive improvement, blood was removed by perfusion through the heart. The blood-free brain was fixed in 4% paraformaldehyde for one day, then made into a paraffin block and fabricated into 4 μm tissue sections for histological staining. The activities of astrocytes (GFAP) and microglia (Iba 1) were measured by confocal microscopy in the dentate gyrus, CA1, and CA3 regions of the hippocampus and the entorhinal cortex, which are major damaged areas in Alzheimer's disease.
# microglia (Iba 1) = test: Brain immunohistochemistry of microglia activity (Iba 1) in hippocampus of 5×FAD; format: in vivo, mouse; conditions: 50 or 150 mg/kg intraperitoneally twice a week
# Method: as §4, §5
# BV2 cells [5] = conditions: according to the report; cited from earlier work
# [6] = 1-10 nM drug, compared to LPS activity
structure (smiles),measurement,setting,value
"COc1cc2c(cc1OC)C(=O)C(CC1CCN(Cc3ccccc3)CC1)C2 (centres unmarked) [donepezil, reference compound]",anti-inflammatory cytokine IL-10 secretion,astrocytes [1],did not affect cytokine secretion
same,pro-inflammatory cytokine TNF-α secretion,astrocytes [1],did not affect cytokine secretion
same,fluorescence intensity of Iba1 (FIG. 8),[2],relatively less microglial activity inhibition pattern than eleutheroside B
same,number of cells (FIG. 8),[2],inhibiting microglia apoptosis
same,anti-inflammatory cytokine IL-10 secretion,microglia,does not affect cytokine secretion
same,pro-inflammatory cytokine TNF-α secretion,microglia,does not affect cytokine secretion
COc1cc(/C=C/CO)cc(OC)c1O[C@@H]1O[C@H](CO)[C@@H](O)[C@H](O)[C@H]1O [eleutheroside B],survival rate,BV2 cells [3]; 20 uM,92±13.3%
same,survival rate,BV2 cells [3]; 40 uM,88±24.8%
same,GFAP fluorescence intensity (FIG. 3),astrocytes [4]; 0.01 pg of eleutheroside B,reduced to almost the same intensity as the control
same,cell area (FIG. 4),astrocytes [4]; [6],reduced
same,intensity of GFAP (FIG. 4),astrocytes [4]; [6],reduced
same,number of proliferated cells (FIG. 4),astrocytes [4]; [6],showed cell proliferation compared to LPS activity
same,anti-inflammatory cytokine IL-10 secretion,astrocytes [1],increased
same,pro-inflammatory cytokine TNF-α secretion,astrocytes [1],decreased
same,Iba1 fluorescence intensity (FIG. 7),"[2]; LPS-activated microglia, 10 nM",reduced to almost the same intensity as that of the control
same,fluorescence intensity of Iba1 (FIG. 8),[2],decrease
same,number of cells (FIG. 8),[2],increased
same,anti-inflammatory cytokine IL-10 secretion,microglia,increased
same,pro-inflammatory cytokine TNF-α secretion,microglia,significant decrease in the pro-inflammatory cytokine TNF-α was not confirmed
same,neurites (FIG. 10),neural stem cells,showed an increase in neurites
same,DCX (differentiation marker),Neuro-2a,slight increase
same,Tuj1 (differentiation marker),Neuro-2a,slight increase
same,nestine (expansion phase marker),Neuro-2a,significant increase
same,neuN (integration phase marker),Neuro-2a,significant increase
same,neuroD (differentiation phase marker),Neuro-2a,significant increase
same,sox2 (expansion phase marker),Neuro-2a,significant increase
same,working memory ability (Y-maze),5×FAD,almost the same remarkable cognitive ability improvement as the control group
same,activity of astrocytes / inflammation in CA1 of the hippocampus (FIG. 15),astrocytes (GFAP),greatly reduced
same,fluorescence intensity of Iba 1 in hippocampus (FIG. 16),microglia (Iba 1),lower than that of the Alzheimer's disease animal model
same,microglia / inflammation in CA1 of the hippocampus (FIG. 18),microglia (Iba 1),greatly reduced almost as in the normal state
same,inflammation / activity of microglial cells in all areas of the hippocampus (FIG. 17),microglia (Iba 1); compared to the Alzheimer's disease animal model,suppressed
same,concentration at which cytotoxicity was reported,BV2 cells [5],40 µM
